Among the data in ChEMBL document CHEMBL4359836, “Synthesis and Biological Assessment of Pyrrolobenzoxazine Scaffold as a Potent Antioxidant” (J Med Chem, 2019) are Ratio IC50, Activity and IC50 values, retold here.

pIC50: −log10 of the molar value. Calls of active or inactive are those of the source. No cut-off for these calls is given here. Bounds are passed on as bounds.

For orientation: pIC50 means −log10 of the IC50, conventionally taken in molar units.

Experiment [1] can be described thus: Antioxidant activity in pH 7.4 potassium phosphate buffer assessed as CuCl2/ascorbic acid induced hydroxyl radical scavenging activity by measuring trolox equivalent antioxidant capacity by measuring IC50 Trolox/IC50 test compound ratio in presence of deoxyribose by thiobarbituric acid based absorbance analysis. Format: functional.
Experiment [2] in a line: Antioxidant activity in pH 7.4 potassium phosphate buffer assessed as CuCl2/ascorbic acid induced hydroxyl radical scavenging activity at 66 uM in presence of deoxyribose after 20 mins by thiobarbituric acid based absorbance analysis (reference value: 0.617 +/- 0.02%). In kind it is functional.
Experiment [3] in a line: Antioxidant activity in pH 7.4 phosphate buffer assessed as H2O2 scavenging activity by measuring H2O2 decomposition at 1.34 to 10.72 uM by spectrophotometric analysis. Format: functional.
Experiment [4] can be described thus: Antioxidant activity in pH 10 Tris-HCl buffer assessed as superoxide anion radical scavenging activity by measuring rate of epinephrine auto-oxidation by spectrophotometric analysis. In kind it is functional.
Experiment [5] can be described thus: Antioxidant activity in pH 7.4 potassium phosphate buffer assessed as CuCl2/ascorbic acid induced hydroxyl radical scavenging activity by measuring deoxyribose degradation product formation after 20 mins by thiobarbituric acid based absorbance analysis. In kind it is functional.
The nature of experiment [6]: Antioxidant activity in pH 7.4 phosphate buffer assessed as DPPH radical scavenging activity at 4 to 100 uM after 30 mins by spectrophotometric analysis (reference value: 0.811 +/- 0.02%). In kind it is functional. In general terms: DPPH is a stable violet radical that fades when it is reduced.
Experiment [7] is described as follows: Reducing power of the compound assessed as reducing Fe3+ power at 80 uM using K3Fe(CN)6 in pH 6.6 phosphate buffer after 20 mins by spectrophotometric analysis.
Experiment [8] can be described thus: Antioxidant activity in pH 10 Tris-HCl buffer assessed as superoxide anion radical scavenging activity by measuring rate of epinephrine auto-oxidation at 10.72 uM by spectrophotometric analysis (reference value: 0.0186 +/- 0.004%). Format: functional.
Experiment [9] in a line: Pro-oxidant activity in pH 7.4 potassium phosphate buffer assessed as reduction in CuCl2/ascorbic acid induced hydroxyl radical scavenging activity at > 66 uM in presence of deoxyribose by measuring deoxyribose degradation product formation after 20 mins by thiobarbituric acid based absorbance analysis.
Experiment [10] is described as follows: Antioxidant activity in pH 7.4 phosphate buffer assessed as DPPH radical scavenging activity after 30 mins by spectrophotometric analysis. Format: functional.
The nature of experiment [11]: Antioxidant activity in pH 10 Tris-HCl buffer assessed as superoxide anion radical scavenging activity by measuring rate of epinephrine auto-oxidation at 8.04 uM by spectrophotometric analysis (reference value: 0.0186 +/- 0.004%). In kind it is functional.
Experiment [12] can be described thus: Pro-oxidant activity in pH 10 Tris-HCl buffer assessed as reduction in superoxide anion radical scavenging activity by measuring rate of epinephrine auto-oxidation at 10.72 uM by spectrophotometric analysis.

As for `COC(=O)c1c(-c2cccc(Cl)c2)cn2c1c(=O)oc1ccccc12`, the Ratio IC50 in experiment [1] amounted to 1.18. Further, the Activity in experiment [2] was 90%; in experiment [4], “Dose-dependent effect”; in experiment [5], “Dose-dependent effect”; in experiment [6] it was under 14%; in experiment [8], 83%. The outcome in [3] and in [7] was inactive. Also, the negative-log IC50 (pIC50) in experiment [5] was 5.08. Besides, the result in [9] was Active.

As for `CCOC(=O)c1c(-c2ccc(C)cc2)cn2c1c(=O)oc1ccccc12`, the Ratio IC50 in experiment [1] came out at 0.95. The result in experiment [3] was inactive. Moreover, the Activity entry in [4] was “Dose-dependent effect”; in experiment [5], “Dose-dependent effect”; in experiment [6], under 14%; in experiment [7] it was “Dose-dependent effect”. For the same compound, in experiment [5], the pIC50 was 4.98. The outcome in experiment [9] was Active.

For `Cc1c(C)c2c(c(C)c1O)CCC(C)(C(=O)O)O2` (stereo unspecified) [TROLOX], the negative-log IC50 (pIC50) is 4.44 in experiment [10] and 5.00 in experiment [5].

Consider `CCOC(=O)c1c(-c2cc(OC)c(OC)c(OC)c2)cn2c1c(=O)oc1ccccc12`, for which, in [1], the Ratio IC50 worked out at 2.06. Moreover, the Activity was 92% in [2]; “Dose-dependent effect” in experiment [4]; “Dose-dependent effect” in experiment [5]; 83% in experiment [11]; under 14% in experiment [6]. Further, the result in experiment [3] and in experiment [7] was inactive. Also, the negative logarithm of the IC50 (pIC50) in experiment [5] was 5.32. Moreover, the outcome in [12] and in experiment [9] was Active.
